Columns and labels:
[1] = system: VEGF-dependent Erk phosphorylation in HUVEC cells; assay: VEGF-dependent Erk phosphorylation; type: cell-based; conditions: Homo sapiens, 1.5 h compound, VEGF165 150 ng/ml, phospho ERK1/2 Western blot
From the text: VEGF-Dependent Erk Phosphorylation
HUVEC cells were purchased from Cambrex Bio Science Walkersville, Inc and cultured according to the vendor's instructions. The full-length coding sequence of VEGF165 was cloned using the Gateway Cloning Technology (Invitrogen) for baculovirus expression Sf9 cells. VEGF165 was purified from conditioned media using a NaCl gradient elution from a HiTrap heparin column (GE Healthcare Life Sciences) followed by an imidazole gradient elution from a HiTrap chelating column (GE Healthcare Life Sciences), then buffer stored in PBS supplemented with 0.1% BSA and filter sterilized
Cells were seeded at 8000 cells/well of a 96 wells plate and grown for 48 hours. Cells were then grown overnight in serum and growth factor-free medium and exposed for 1.5 h to compounds dilutions. Following a 15 min incubation in medium, VEGF165 (150 ng/ml) cells were lysed in ice-cold lysis buffer (50 mM HEPES, pH 7.4, 150 mM NaCl, 1.5 mM MgCl2, 1% Triton X-100, 10% glycerol) containing 1 mM 4-(2 aminoethyl)benzenesulfonyl fluoride hydrochloride, 200 μM sodium orthovanadate, 1 mM sodium fluoride, 10 μg/mL leupeptin, 10 μg/mL aprotinin, 1 μg/mL pepstatin and 50 μg/mL Na-p-tosyl-L-lysine chloromethyl ketone hydrochloride and processed as Western blots to detect anti-phospho ERK1/2 (T202/Y204) (Cell Signaling Technologies).
lysates samples from single treatment wells were separated on 5-20% SDS-PAGE gels and immunobloting was performed using Immobilon polyvinylidene difluoride membranes (Amersham) according to the manufacturer's instructions.

VEGFR2 (KDR) = biological target: T1, VEGFR2 (KDR) (Homo sapiens, UniProt P35968); assay: In vitro receptor tyrosine kinase assay (VEGF receptor KDR), DELFIA; type: biochemical; conditions: recombinant GST-VEGFR2 catalytic domain, ATP 0.6 uM, enzyme 5 nM
T1 construct: made in house; host or cells: Sf9 cells (Spodoptera frugiperda), baculovirus (Bac-to-Bac)
T1 sequence (P35968 806-1356): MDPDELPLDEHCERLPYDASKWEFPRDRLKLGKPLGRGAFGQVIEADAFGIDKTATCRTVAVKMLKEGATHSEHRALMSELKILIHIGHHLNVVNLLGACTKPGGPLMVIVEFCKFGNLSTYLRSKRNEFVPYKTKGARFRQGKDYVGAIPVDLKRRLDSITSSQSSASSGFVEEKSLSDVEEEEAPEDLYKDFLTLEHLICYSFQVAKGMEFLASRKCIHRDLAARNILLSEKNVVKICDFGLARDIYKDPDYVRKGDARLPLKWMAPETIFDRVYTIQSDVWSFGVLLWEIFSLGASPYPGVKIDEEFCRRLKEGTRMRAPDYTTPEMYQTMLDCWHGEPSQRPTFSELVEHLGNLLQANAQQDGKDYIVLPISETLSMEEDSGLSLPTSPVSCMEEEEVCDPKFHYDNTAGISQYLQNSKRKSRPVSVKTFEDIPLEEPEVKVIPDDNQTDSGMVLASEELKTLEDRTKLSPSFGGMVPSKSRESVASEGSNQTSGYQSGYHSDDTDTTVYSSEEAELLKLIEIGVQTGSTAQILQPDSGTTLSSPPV
From the text: In Vitro Receptor Tyrosine Kinase Assay (VEGF Receptor KDR)
This test measures the ability of compounds to inhibit the enzymatic activity of recombinant human VEGF receptor enzymatic activity.
A 1.6-kb cDNA corresponding to the catalytic domain of VEGFR2 (KDR) (Genbank accession number AF035121 amino acid 806 to 1356) is cloned into the Pst I site of the pDEST20 Gateway vector (Invitrogen) for the production of a GST-tagged version of that enzyme. This constuct is used to generate recombinant baculovirus using the Bac-to-Bac™ system according to the manucfacturer's instructions (Invitrogen).
The GST-VEGFR2806-1356 protein is expressed in Sf9 cells (Spodoptera frugiperda) upon infection with recombinant baculovirus construct. Briefly, Sf9 cells grown in suspension and maintained in serum-free medium (Sf900 II supplemented with gentamycin) at a cell density of about 2×10^6 cells/ml are infected with the above-mentioned viruses at a multiplicity of infection (MOI) of 0.1 during 72 hours at 27° C. with agitation at 120 rpm on a rotary shaker. Infected cells are harvested by centrifugation at 398 g for 15 min. Cell pellets are frozen at −80° C. until purification is performed.
All steps described in cell extraction and purification are performed at 4° C. Frozen Sf9 cell pellets infected with the GST-VEGFR2806-1356 recombinant baculovirus are thawed and gently resuspended in Buffer A (PBS pH 7.3 supplemented with 1 μg/ml pepstatin, 2 μg/ml Aprotinin and leupeptin, 50 μg/ml PMSF, 50 μg/ml TLCK and 10 μM E64 and 0.5 mM DTT) using 3 ml of buffer per gram of cells. Suspension is Dounce homogenized and 1% Triton X-100 is added to the homogenate after which it is centrifuged at 22500 g, 30 min., 4° C. The supernatant (cell extract) is used as starting material for purification of GST-VEGFR2806-1356.
The supernatant is loaded onto a GST-agarose column (Sigma) equilibrated with PBS pH 7.3. Following a four column volume (CV) wash with PBS pH 7.3+1% Triton X-100 and 4 CV wash with buffer B (50 mM Tris pH 8.0, 20% glycerol and 100mM NaCl), bound proteins are step eluted with 5 CV of buffer B supplemented with 5 mM DTT and 15 mM glutathion. GST-VEGFR2806-1356 enriched fractions from this chromatography step are pooled based on U.V. trace i.e. fractions with high O.D.280. Final GST-VEGFR2806-1356 protein preparations concentrations are about 0.7 mg/ml with purity approximating 70%. Purified GST-VEGFR2806-1356 protein stocks are aliquoted and frozen at −80° C. prior to use in enzymatic assay.
Inhibition of VEGFR/KDR is measured in a DELFIA™ assay (Perkin Elmer). The substrate poly(Glu4, Tyr) is immobilized onto black high-binding polystyrene 96-well plates. The coated plates are washed and stored at 4° C. During the assay, the enzyme is pre-incubated with inhibitor and Mg-ATP on ice in polypropylene 96-well plates for 4 minutes, and then transferred to the coated plates. The subsequent kinase reaction takes place at 30° C. for 10-30 minutes. ATP concentrations in the assay are 0.6 uM for VEGFR/KDR (2× the Km). Enzyme concentration is 5 nM. After incubation, the kinase reactions are quenched with EDTA and the plates are washed. Phosphorylated product is detected by incubation with Europium-labeled anti-phosphotyrosine MoAb. After washing the plates, bound MoAb is detected by time-resolved fluorescence in a Gemini SpectraMax reader (Molecular Devices). Compounds are evaluated over a range of concentrations and IC50's (concentration of compounds giving 50% inhibition of enzymatic activity) are determined. In the table, “a” indicates inhibitory activity at a concentration of less than 250 nanomolar; “b” indicates inhibitory activity at a concentration ≧250 but <500 nanomolar, “c” indicates inhibitory activity at ≧500 but <1000 nanomolar; and “d” indicates inhibitory activity ≧1000 nanomolar.

Row | Compound | IC50 [1] [nM] | IC50 (VEGFR2 (KDR)) [nM]
1 | COCCNCc1cccc(-c2cc3nccc(Oc4ccc(NC(=O)NC5CC5)cc4F)c3s2)n1 | < 250 | < 250
2 | COCCNCc1ccc(-c2cc3nccc(Oc4ccc(NC(=O)Nc5cccc(C(N)=O)c5)cc4F)c3s2)nc1 | < 250 | < 250
3 | COCCNCc1ccc(-c2cc3nccc(Oc4ccc(NC(=O)Nc5cccc(S(C)(=O)=O)c5)cc4F)c3s2)nc1 | < 250 | < 250
4 | COCCNCc1cnc(-c2cc3nccc(Oc4ccc(NC(=O)Nc5cc(C(F)(F)F)ccc5F)cc4F)c3s2)n1C | < 250 | < 250
5 | COCCNCc1cnc(-c2cc3nccc(Oc4ccc(NC(=O)Nc5ccc(OC)cc5)cc4F)c3s2)n1C | < 250 | < 250
6 | COCCNCc1cnc(-c2cc3nccc(Oc4ccc(NC(=O)Nc5cccc(C(N)=O)c5)cc4F)c3s2)n1C | < 250 | < 250
7 | COCCNCc1ccc(-c2cc3nccc(Oc4ccc(NC(=O)C5CC5)cc4F)c3s2)nc1 |  | 250 to 500
8 | COCCNCc1ccc(-c2cc3nccc(Oc4ccc(NC(=O)Nc5cccc(C(=O)OC)c5)cc4F)c3s2)nc1 |  | < 250
9 | CNC(=O)c1cccc(NC(=O)Nc2ccc(Oc3ccnc4cc(-c5ccc(CNCCOC)cn5)sc34)c(F)c2)c1 |  | < 250
10 | COCCNCc1ccc(-c2cc3nccc(Oc4ccc(NC(=O)N[C@@H]5CCOC5)cc4F)c3s2)nc1 | < 250 | ≥ 1000
11 | COCCNCc1ccc(-c2cc3nccc(Oc4ccc(NC(=O)CC(=O)NC5CCC5)cc4F)c3s2)nc1 | < 250 | 250 to 500
12 | COCCNCc1ccc(-c2cc3nccc(Oc4ccc(NC(=O)OC5CCCCC5)cc4F)c3s2)nc1 | < 250 | ≥ 1000
13 | COCCNCc1ccc(-c2cc3nccc(Oc4ccc(NC(=O)OC5CCC5)cc4F)c3s2)nc1 | < 250 | < 250
14 | COCCNCc1ccc(-c2cc3nccc(Oc4ccc(NC(=O)N[C@H]5CCOC5)cc4F)c3s2)nc1 | < 250 | 500 to 1000
15 | COCCN(Cc1ccc(-c2cc3nccc(Oc4ccc(NC(=O)Nc5cccc(C(N)=O)c5)cc4F)c3s2)nc1)C(C)=O | < 250 | < 250
16 | COCCOCCOCCOCCN(Cc1ccc(-c2cc3nccc(Oc4ccc(NC(=O)NC5CC5)cc4F)c3s2)nc1)C(C)=O | < 250 | < 250
17 | COCCNCc1ccc(-c2cc3nccc(Oc4ccc(NC(=O)Nc5ccn(C)n5)cc4F)c3s2)nc1 | < 250 | < 250
18 | COCCNCc1ccc(-c2cc3nccc(Oc4ccc(NC(=O)Nc5cccc(C(=O)N(C)C)c5)cc4F)c3s2)nc1 | < 250 | < 250

Row | Compound | IC50 [1] [nM] | IC50 (VEGFR2 (KDR)) [nM]
19 | COCCNCc1ccc(-c2cc3nccc(Oc4ccc(NC(=O)CC(=O)Nc5cccc(C(N)=O)c5)cc4F)c3s2)nc1 | < 250 | 250 to 500
20 | COCCNCc1ccc(-c2cc3nccc(Oc4ccc(NC(=O)CC(=O)Nc5cccc(S(C)(=O)=O)c5)cc4F)c3s2)nc1 | < 250 | < 250
21 | COCCN(Cc1ccc(-c2cc3nccc(Oc4ccc(NC(=O)Nc5cccc(C(=O)N(C)C)c5)cc4F)c3s2)nc1)C(C)=O | < 250 | < 250
22 | COCCNCc1ccc(-c2cc3nccc(Oc4ccc(NC(=O)NC(C)C)cc4F)c3s2)nc1 | < 250 | 500 to 1000
23 | COCCNCc1ccc(-c2cc3nccc(Oc4ccc(NC(=O)Nc5ccc(F)cc5F)cc4F)c3s2)nc1 | < 250 | < 250
24 | O=C(Nc1ccc(Oc2ccnc3cc(-c4ccc(C5OCCCO5)cn4)sc23)c(F)c1)NC1CC1 | < 250 | < 250
25 | COCCN(Cc1ccc(-c2cc3nccc(Oc4ccc(NC(=O)Nc5cccc(S(C)(=O)=O)c5)cc4F)c3s2)nc1)C(=O)OC | < 250 | < 250
26 | COC[C@H](C)NCc1ccc(-c2cc3nccc(Oc4ccc(NC(=O)NC5CC5)cc4F)c3s2)nc1 | < 250 | < 250
27 | COCCN(Cc1ccc(-c2cc3nccc(Oc4ccc(NC(=O)NC5CC5)cc4F)c3s2)nc1)C(=O)OC |  | < 250
28 | CCOC(=O)N(CCOC)Cc1ccc(-c2cc3nccc(Oc4ccc(NC(=O)NC5CC5)cc4F)c3s2)nc1 | < 250 | < 250
29 | COCCOCCOCCOCCNCc1ccc(-c2cc3nccc(Oc4ccc(NC(=O)NC5CC5)cc4F)c3s2)nc1 [drawing 129] | < 250 | < 250
30 | COCCNCc1cnc(-c2cc3nccc(Oc4ccc(NC(=O)NC5CC5)cc4F)c3s2)n1C [drawing 131] | < 250 | < 250
31 | COCCNCc1cnc(-c2cc3nccc(Oc4ccc(NC(=O)Nc5ccc(F)cc5F)cc4F)c3s2)n1C [drawing 134] | < 250 | < 250
32 | COCCN(Cc1cnc(-c2cc3nccc(Oc4ccc(NC(=O)NC5CC5)cc4F)c3s2)n1C)S(C)(=O)=O [drawing 137] | < 250 | < 250
33 | COCCN(Cc1ccc(-c2cc3nccc(Oc4ccc(NC(=O)NC5CC5)cc4F)c3s2)nc1)C(=O)[C@H](N)C(C)C [drawing 143] | < 250 | < 250
34 | COCCN(Cc1ccc(-c2cc3nccc(Oc4ccc(NC(=O)Nc5cccc(S(C)(=O)=O)c5)cc4F)c3s2)nc1)C(C)=O [drawing 152] | < 250 | < 250
35 | COCCNCc1ccc(-c2cc3nccc(Oc4ccc(NC(=O)NC5CCC5)cc4F)c3s2)nc1 [drawing 153] | < 250 | < 250
36 | COCCN(Cc1ccc(-c2cc3nccc(Oc4ccc(NC(=O)Nc5cccc(C(N)=O)c5)cc4F)c3s2)nc1)C(=O)OC [drawing 160] | < 250 | < 250

Source: patent US8759522B2, “Inhibitors of protein tyrosine kinase activity” (Methylgene Inc., priority 2008, dated 2014)
